Read-outs that look alike come from different tables or passages of the source.
What was measured:
CDK2/CycE = biological target: T1, CDK2/CycE (Homo sapiens, UniProt P24941); experiment: CDK2/CycE kinase assay (TR-FRET, Method 2a); format: biochemical; conditions: 10 μM ATP
T1 construct: GST; purchased ProQinase GmbH (Freiburg, Germany); host or cells: insect cells (Sf9)
Source text: 2a. CDK2/CycE Kinase Assay:
CDK2/CycE-inhibitory activity of compounds of the present invention was quantified employing the CDK2/CycE TR-FRET assay as described in the following paragraphs:
Recombinant fusion proteins of GST and human CDK2 and of GST and human CycE, expressed in insect cells (Sf9) and purified by Glutathion-Sepharose affinity chromatography, were purchased from ProQinase GmbH (Freiburg, Germany). As substrate for the kinase reaction biotinylated peptide biotin-Ttds-YISPLKSPYKISEG (C-terminus in amid form) was used which can be purchased e.g. from the company JERINI Peptide Technologies (Berlin, Germany).
For the assay 50 nl of a 100 fold concentrated solution of the test compound in DMSO was pipetted into a black low volume 384 well microtiter plate (Greiner Bio-One, Frickenhausen, Germany), 2 μl of a solution of CDK2/CycE in aqueous assay buffer [50 mM Tris/HCl pH 8.0, 10 mM MgCl2, 1.0 mM dithiothreitol, 0.1 mM sodium ortho-vanadate, 0.01% (v/v) Nonidet-P40 (Sigma)] were added and the mixture was incubated for 15 min at 22° C. to allow pre-binding of the test compounds to the enzyme before the start of the kinase reaction. […] The concentration of CDK2/CycE was adjusted depending of the activity of the enzyme lot and was chosen appropriate to have the assay in the linear range, typical concentrations were in the range of 130 ng/mL. The reaction was stopped by the addition of 5 μl of a solution of TR-FRET detection reagents (0.2 μM streptavidine-XL665 [Cisbio Bioassays, Codolet, France] and 1 nM anti-RB(pSer807/pSer811)-antibody from BD Pharmingen [#558389] and 1.2 nM LANCE EU-W1024 labeled anti-mouse IgG antibody [Perkin-Elmer, product no. AD0077]) in an aqueous EDTA-solution (100 mM EDTA, 0.2% (w/v) bovine serum albumin in 100 mM HEPES pH 7.5).
The resulting mixture was incubated 1 h at 22° C. to allow the formation of complex between the phosphorylated biotinylated peptide and the detection reagents. Subsequently the amount of phosphorylated substrate was evaluated by measurement of the resonance energy transfer from the Eu-chelate to the streptavidine-XL. Therefore, the fluorescence emissions at 620 nm and 665 nm after excitation at 350 nm was measured in a TR-FRET reader, e.g. a Rubystar (BMG Labtechnologies, Offenburg, Germany) or a Viewlux (Perkin-Elmer). The ratio of the emissions at 665 nm and at […] was taken as the measure for the amount of phosphorylated substrate. The data were normalised (enzyme reaction without inhibitor=0% inhibition, all other assay components but no enzyme=100% inhibition).

HeLa-MaTu-ADR cells = experiment: Proliferation assay HeLa-MaTu-ADR; format: cell-based, human; conditions: 4 days, crystal violet, read-out: Inhibition of HeLa-MaTu-ADR cell proliferation IC50
Method: Cultivated tumour cells (HeLa, human cervical tumour cells, ATCC CCL-2; NCI-H460, human non-small cell lung carcinoma cells, ATCC HTB-177; A2780, human ovarian carcinoma cells, ECACC #93112519; DU 145, hormone-independent human prostate carcinoma cells, ATCC HTB-81; HeLa-MaTu-ADR, multidrug-resistant human cervical carcinoma cells, EPO-GmbH Berlin; Caco-2, human colorectal carcinoma cells, ATCC HTB-37; B16F10, mouse melanoma cells, ATCC CRL-6475) were plated at a density of 5,000 cells/well (DU145, HeLa-MaTu-ADR), 3,000 cells/well (NCI-H460, HeLa), 2,500 cells/well (A2780), 1,500 cells/well (Caco-2), or 1,000 cells/well (B16F10) in a 96-well multititer plate in 200 μL of their respective growth medium supplemented 10% fetal calf serum. After 24 hours, the cells of one plate (zero-point plate) were stained with crystal violet (see below), while the medium of the other plates was replaced by fresh culture medium (200 μl), to which the test substances were added in various concentrations (0 μM, as well as in the range of 0.001-10 μM). The cells were incubated for 4 days in the presence of test substances. Cell proliferation was determined by staining the cells with crystal violet: the cells were fixed by adding 20 μl/measuring point of an 11% glutaric aldehyde solution for 15 minutes at room temperature. After three washing cycles of the fixed cells with water, the plates were dried at room temperature. The cells were stained by adding 100 μl/measuring point of a 0.1% crystal violet solution (pH 3.0). After three washing cycles of the stained cells with water, the plates were dried at room temperature. The dye was dissolved by adding 100 μl/measuring point of a 10% acetic acid solution. The extinction was determined by photometry at a wavelength of 595 nm. The change of cell number, in percent, was calculated by normalization of the measured values to the extinction values of the zero-point plate (=0%) and the extinction of the untreated (0 μm) cells (=100%). The IC50 values (inhibitory concentration at 50% of maximal effect) were determined by means of a 4 parameter fit. Non-adherent MOLM-13 human acute myeloid leukemia cells (DSMZ ACC 554) were seeded at a density of 5,000 cells/well in a 96-well multititer plate in 100 μL of growth medium supplemented 10% fetal calf serum. After 24 hours, cell viability of one plate (zero-point plate) was determined with the Cell Titre-Glo Luminescent Cell Viability Assay (Promega), while 50 μL of test compound containing medium was added to the wells of the other plates (final concentrations in the range of 0.001-1 μM and DMSO controls). Cell viability was assessed after 72-hour exposure with the Cell Titre-Glo Luminescent Cell Viability Assay (Promega). IC50 values (inhibitory concentration at 50% of maximal effect) were determined by means of a 4 parameter fit on measurement data which were normalized to vehicle (DMSO) treated cells (=100%) and measurement readings taken immediately before compound exposure (=0%).

Row | IC50 (CDK2/CycE) | IC50 (HeLa-MaTu-ADR cells; Homo sapiens, 96 h) | IC50 (HeLa-MaTu-ADR cells; trifluoroacetate) | Compound | IC50 (HeLa-MaTu-ADR cells)
1 | 19.3 nM | 20 nM | – | CS(=O)(=O)N=S(C)(=O)Cc1cc2nc(c1)OCCCOc1cc(F)ccc1-c1cc(ncc1F)N2 (racemic) [Example 22, (rac)-N-[{[15,19-difluoro-3,4-dihydro-2H,11H-10,6-(azeno)-12,16-(metheno)-1,5,11,13-benzodioxadiazacyclooctadecin-8-yl]methyl}(methyl)oxido-λ^6-sulfanylidene]methanesulfonamide] | –
2 | 30.2 nM | 396 nM | – | CS(=O)(Cc1cc2nc(c1)OCCCOc1cc(F)ccc1-c1cc(ncc1F)N2)=NS(=O)(=O)CCN (racemic) [Example 23, (rac)-2-amino-N-[{[15,19-difluoro-3,4-dihydro-2H,11H-10,6-(azeno)-12,16-(metheno)-1,5,11,13-benzodioxadiazacyclooctadecin-8-yl]methyl}(methyl)oxido-λ^6-sulfanylidene]ethanesulfonamide] | –
3 | 13.5 nM | – | 210 nM | CS(=O)(Cc1cc2nc(c1)OCCCOc1cc(F)ccc1-c1cc(ncc1F)N2)=NS(=O)(=O)CCN.O=C(O)C(F)(F)F (racemic) [Example 24, (rac)-2-{[{[15,19-difluoro-3,4-dihydro-2H,11H-10,6-(azeno)-12,16-(metheno)-1,5,11,13-benzodioxadiazacyclooctadecin-8-yl]methyl}(methyl)oxido-λ^6-sulfanylidene]sulfamoyl}ethanaminium trifluoroacetate] | –
4 | 5.6 nM | 32 nM | – | CS(=O)(Cc1cc2nc(c1)OCCCOc1cc(F)ccc1-c1cc(ncc1F)N2)=NC(=O)OCCN (racemic) [Example 25, (rac)-2-aminoethyl [{[15,19-difluoro-3,4-dihydro-2H,11H-10,6-(azeno)-12,16-(metheno)-1,5,11,13-benzodioxadiazacyclooctadecin-8-yl]methyl}(methyl)oxido-λ^6-sulfanylidene]carbamate] | –
5 | 2.7 nM | 5 nM | – | CS(=N)(=O)Cc1cc2nc(c1)OCCCOc1cc(F)ccc1-c1cc(ncc1F)N2 (single isomer, unassigned; enantiomer 1) [Example 6, 15,19-Difluoro-8-[(S-methylsulfonimidoyl)methyl]-3,4-dihydro-2H,11H-10,6-(azeno)-12,16-(metheno)-1,5,11,13-benzodioxadiazacyclooctadecine; Enantiomer 1] | –
6 | 2.4 nM | – | – | CS(=N)(=O)Cc1cc2nc(c1)OCCCOc1cc(F)ccc1-c1cc(ncc1F)N2 (single isomer, unassigned; enantiomer 2) [Example 7, 15,19-Difluoro-8-[(S-methylsulfonimidoyl)methyl]-3,4-dihydro-2H,11H-10,6-(azeno)-12,16-(metheno)-1,5,11,13-benzodioxadiazacyclooctadecine; Enantiomer 2] | 5 nM
7 | 97.8 nM | 77 nM | – | CSCc1cc2cc(c1)OCCCOc1cc(F)ccc1-c1nc(ncc1F)N2 [Example 2, 15,19-Difluoro-8-[(methylsulfanyl)methyl]-3,4-dihydro-2H,11H-12,16-(azeno)-10,6-(metheno)-1,5,11,13-benzodioxadiazacyclooctadecine] | –
8 | 41 nM | 70 nM | – | CSCc1cc2nc(c1)OCCCOc1cc(F)ccc1-c1cc(ncc1F)N2 [Example 3, 15,19-Difluoro-8-[(methylsulfanyl)methyl]-3,4-dihydro-2H,11H-10,6-(azeno)-12,16-(metheno)-1,5,11,13-benzodioxadiazacyclooctadecine] | –
9 | 5 nM | 9 nM | – | CS(=O)(=O)Cc1cc2nc(c1)OCCCOc1cc(F)ccc1-c1cc(ncc1F)N2 [Example 8, 15,19-difluoro-8-[(methylsulfonyl)methyl]-3,4-dihydro-2H,11H-10,6-(azeno)-12,16-(metheno)-1,5,11,13-benzodioxadiazacyclooctadecine] | –
10 | 114 nM | 207 nM | – | CSCc1cc2nc(c1)OCCCCOc1cc(F)ccc1-c1cc(ncc1F)N2 [Example 12, 16,20-Difluoro-9-[(methylsulfanyl)methyl]-2,3,4,5-tetrahydro-12H-11,7-(azeno)-13,17-(metheno)-1,6,12,14-benzodioxadiazacyclononadecine] | –
11 | 10 nM | 298 nM | – | NCCS(=O)(=O)Cc1cc2nc(c1)OCCCOc1cc(F)ccc1-c1cc(ncc1F)N2 [Example 26, 2-({[15,19-difluoro-3,4-dihydro-2H,11H-10,6-(azeno)-12,16-(metheno)-1,5,11,13-benzodioxadiazacyclooctadecin-8-yl]methyl}sulfonyl)ethanamine] | –

Row | Compound | IC50 (CDK2/CycE) | IC50 (HeLa-MaTu-ADR cells; Homo sapiens, 96 h) | IC50 (HeLa-MaTu-ADR cells; trifluoroacetate) | IC50 (HeLa-MaTu-ADR cells)
12 | ({[15,19-difluoro-3,4-dihydro-2H,11H-10,6-(azeno)-12,16-(metheno)-1,5,11,13-benzodioxadiazacyclooctadecin-8-yl]methyl}sulfonyl)acetic acid [Example 27] | 2.3 nM | – | – | 1280 nM
